This passage reports EC50 results from ChEMBL document CHEMBL5725860 (2018).

Each structure is given as a SMILES string. A value given as a limit tells only on which side of the number the result lay.

In the assay the target is Neurotensin receptor type 1 (Homo sapiens, UniProt P30989). The experiment in a line: NTR1 Ca2+ Flux Dose Response: NTSR1 (NTR1) CHO cells are plated in 20 uL of assay media containing Ham's F12 supplemented with 10% fetal bovine serum and 0.4 mg/mL G418 at a concentration of 1.0×10^6 cells per mL into black, 384-well assay plates with clear bottoms using a Multidrop liquid handler. Assay plates are incubated at 37° C. in 5% CO2. The next day, the assay plates are aspirated to remove growth media and washed once with 20 uL of DPBS. The DPBS is then aspirated from the assay plate and replaced with 25 uL of Fluo-4 NW calcium dye prepared according to the manufacturer's recommendations then the plates are incubated for 1 hour at 37° C. Following the incubation in the presence of dye, the assay is run on a Molecular Devices FlexStation-III using 494 excitation and 516 emission wavelengths set to read for 90 seconds with the addition at 18 seconds of 5 uL of 6× final concentration of test compounds and peptide control diluted in assay media containing 0.1% BSA and no more than 9% DMSO to yield a maximum final DMSO concentration of 1.5%. […] EC50 values were calculated for those compounds tested in 8-point dose dependent response.
Chain of Neurotensin receptor type 1 (P30989 whole entry): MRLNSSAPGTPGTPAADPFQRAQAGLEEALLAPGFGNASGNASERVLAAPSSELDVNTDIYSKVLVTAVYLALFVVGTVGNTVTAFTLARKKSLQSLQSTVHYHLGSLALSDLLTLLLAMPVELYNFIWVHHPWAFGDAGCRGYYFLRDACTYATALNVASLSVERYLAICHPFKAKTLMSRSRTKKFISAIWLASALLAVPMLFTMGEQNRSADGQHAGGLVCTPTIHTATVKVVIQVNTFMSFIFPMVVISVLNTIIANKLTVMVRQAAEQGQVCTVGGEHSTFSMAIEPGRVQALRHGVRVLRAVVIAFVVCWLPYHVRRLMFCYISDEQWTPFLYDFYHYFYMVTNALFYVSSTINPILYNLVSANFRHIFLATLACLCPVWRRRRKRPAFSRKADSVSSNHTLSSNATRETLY
In the case of `COc1ccccc1C1CCN(c2nc(C3CC3)nc3cc(F)c(N(C)CCO)cc23)CC1`, the EC50 – broadly, the concentration giving half of the maximal effect – is < 0.5 µM.
As for `COc1cccc2c1CCN(c1nc(C3CC3)nc3ccc(N(C)CCO)cc13)C2`, the figure is > 10 µM; as for `COc1ccccc1C1CCN(c2nc(C3CC3)nc3c(N(C)CCO)cccc23)CC1`, > 10 µM; as for `COc1ccccc1C1CCN(c2nc(C3CC3)nc(C)c2CC(=O)N(C)CCO)CC1`, > 10 µM.
